A word on the melting point: it is the temperature, or range, at which the solid turns liquid.

Some results are limits rather than exact numbers.

With `O=C1N(Cc2noc(C(F)F)n2)c2ccccc2C12COc1cc3c(cc12)OCO3` (stereo not given), the melting point is 137 to 139 °C. Turning to `Cn1nc2c(N)nc3ccccc3c2c1CCCCNS(C)(=O)=O`, the melting point lay within 188 to 189 °C. Under `CCOC(=O)c1c(N)sc(-c2ccc([N+](=O)[O-])cc2)c1C` stands 117 to 119 °C. Compound `CC(C)C(C(N)=O)N(C)C(=O)OC(C)(C)C` (stereo not given) came in with a melting point of 181 to 183 °C. With `CC(=C1SC(=O)NC1=O)c1ccc(OCCOc2c(-c3ccccc3F)n(C)c3ccccc3c2=O)c(Cl)c1` the figure was 220 to 222 °C; with `COC(=O)c1ccc(OC)c2oc3ccnc(O)c3c12`, 205 to 207 °C. Under `Cn1ncc2c1CS(=O)c1cn[nH]c1-2` (stereo not given) stands greater than 270 °C. Under `COc1ccc(CSc2cccc(C(=O)Nc3ccc(C#N)cc3)c2)cc1` stands 167 to 169 °C.

`CCCCCCCCCCCCCCOc1cccc(CC(=O)Nc2cccc(CBr)c2)c1` registered a melting point of 104 to 106 °C.

Take `COc1cc(C)nc(NC(=O)NS(=O)(=O)N(C)S(C)(=O)=O)n1`: the melting point was in the range of 118 to 120 °C. With `CCCc1c(OCCC(C)Br)ccc(C(C)=O)c1O` (stereo not given) the figure was 53 to 55 °C; with `N#Cc1ccc(NCC(=O)Nc2c(Cl)ccc3nc(N4CC[C@@H](O)C4)ccc23)cc1`, 230 to 233 °C; with `COc1c(F)cc2[nH]c(C)c(CC(=O)O)c2c1F`, 176 to 178 °C. Under `CN(C=CC(=Nc1ccccc1)Oc1ccccc1)c1ccccc1` stands 130 to 132 °C; under `COc1ccc(C(=O)Nc2cc(C)cc(C)c2)cc1N`, 155 to 162 °C; under `CC(=O)OCCn1nc(-c2cc(C(C)(C)C)c(O)c(C(C)(C)C)c2)c2c(C)cc(C)nc21`, 110 to 111 °C. As to `N#Cc1ccc(N(Cc2ccc(OCc3ccccc3)cc2)n2cnnc2)cc1-c1ccc(C(F)(F)F)cc1`, the melting point lay within 173 to 175 °C.

With `Cn1cc(C(=O)O)c(=O)c2cc(F)c(F)cc21`, the melting point was 284 to 287 °C. Under `NNC(=O)c1ccc2oc3ccccc3c2c1` stands 216 to 218 °C. Under `Cc1cc(Cn2nc(-c3ccccc3)oc2=O)cc(C(C)(C)C)c1O` stands 152 °C; under `COc1cc2c3ccc(OC)c(OC)c3n(C(=O)c3ccc(C(C)(C)C)cc3)c2cc1OC`, 129 to 131 °C. The compound `N#Cc1cc(F)c(NC(=O)C=C(N)C(F)(F)F)cc1F` had a melting point of 127 °C. Under `O=C(O)c1ccc2nc(S)[nH]c2c1` stands greater than 250 °C; under `O=C(O)C(CC1CCCCC1)c1ccc(OCc2ccc3ccccc3n2)cc1` (stereo not given), 148 to 150 °C; under `O=C(NC1CCCCC1)NS(=O)(=O)c1ccc2c(c1)CCN(C(=O)N1CCCCC1)CC2`, 166 to 167 °C. The compound `COC(=O)c1cc(OC)c(-n2cccc2)c(OC)c1` registered a melting point of 145 to 146 °C. Under `N#Cc1cc2cccnc2nc1O` stands 300 °C; under `CC(C)N(CCSc1ccc(Cl)cc1)C(=O)Oc1ccccc1`, 54 to 56 °C; under `O=S(=O)(Nc1ccc2c(OCc3nc(-c4ccc(F)cc4)no3)cccc2c1)C(F)(F)F`, 131 to 132 °C. Compound `Cn1cc(C2OC(=O)NC2=O)c2ccccc21` (stereo not given) showed a melting point of 152 to 154 °C. Take `COc1ccc(CCNc2nc(C)c(CCO)c(=O)[nH]2)cc1`: the melting point is 180 °C. With `CC(C)(C)OC(=O)NCCn1c(=S)[nH][nH]c(=O)c1=O` the figure was 160 °C. With `C[C@H](NC(=O)Cc1ccccc1)C(=O)O` the figure was 102 to 104 °C; with `N#Cc1ccc(-c2ccc(-c3ccc(C#N)cn3)s2)cc1`, 316 to 318 °C. With `COC(=O)Nc1cc(=O)[nH]c(N)n1` the figure was 186 to 188 °C; with `CCCOC1C=CC(=O)N1S(=O)(=O)c1ccccc1` (stereo not given), 56 to 58 °C.

The compound `CC(=O)N1CCN=C1c1c(Cl)nc(N)nc1Cl` registered a melting point of 221 °C. Under `CC1(Cc2ccc(Br)cc2)C(=O)N(c2cc(Cl)cc(Cl)c2)c2ccccc21` (stereo not given) stands 129 to 130 °C. The compound `COc1ccc(N2CCN(C(=O)CC3CCCc4ccccc43)CC2)cc1` (stereo not given) yielded a melting point of 133 to 134 °C. Under `CC(C)=Cc1sc(C#N)c2c1C(=O)CC(C)(C)C2` stands 115 to 117 °C. Under `CC(C)(C)c1cc(NS(=O)(=O)c2ccc(N3CCNC3=O)cc2)cc(C(C)(C)C)c1` stands 276 to 278 °C; under `COc1ccc(-c2c(C(=O)O)c3ccccc3n2C)cc1`, 229 to 230 °C; under `COC(=O)[C@H](Cc1ccc([N+](=O)[O-])cc1)NC(=O)c1c(C)cccc1Cl`, 120 to 123 °C. Under `COc1ccc(C(=O)Nc2ccc(C)c(C)c2)cc1N` stands 138 to 142 °C; under `N#Cc1ccc(C=O)cc1F`, 83 °C. Compound `O=C(O)CCCCCc1nn(-c2ccccc2)c2c1CCC2` showed a melting point of 95 to 96 °C.

Regarding `Cn1nc(-c2cccc(N3Cc4cc(C(C)(C)C)ccc4C3=O)c2CO)cc(Nc2ccncn2)c1=O`, the melting point fell in the range of 236 to 238 °C. Under `COCc1ccc(-c2ncccc2S(=O)(=O)Nc2ncc(C)nc2OC)cc1` stands 129 to 130 °C. Compound `CCCC(NC(=O)Cc1ccc(C(=O)O)c(OCC)c1)c1ccccc1N1CCCCC1` (stereo not given) displayed a melting point of 87 to 89 °C. With `CC(C)(C)OC(=O)Nc1cn(-c2cccnc2)nc1Cl` the figure was 125 to 128 °C. With `O=[N+]([O-])c1ccc(-n2ccnc2)cc1` the figure was 150 °C; with `O=Cc1c[nH]c2c1ccc1c3cc(-c4ccc(OC(F)(F)F)cc4)ccc3[nH]c12`, greater than 250 °C.

In turn, `Cn1cncc1C(O)(c1ccc(Cl)cc1)c1ccc2nc(C=O)cc(-c3cccc(Cl)c3)c2c1` (stereo not given) came in with a melting point of 205 °C. With `CS(=O)(=O)c1ccc(-c2cnn(-c3ccc(F)cc3)c(=O)c2OCCC2CC2)cc1` the figure was 111 to 117 °C. With `O=[N+]([O-])c1ccc2c([N+](=O)[O-])c(O)c(O)cc2c1` the figure was 200 to 207 °C. With `CCOC(=O)c1ccc(Nc2ccc([N+](=O)[O-])cc2N)cc1` the figure was 145 to 150 °C. `CN(C)C=Cc1[nH]c(=O)ccc1C(=O)c1ccccc1` showed a melting point of 202 to 204 °C. Under `Cc1nc2ccc(N)cn2c(=O)c1CCCl` stands 185 °C; under `COc1nccc2c([N+](=O)[O-])c(C)ccc12`, 94 °C; under `CN(C)C1CCN(C(=O)N2CCC(c3[nH]nc4c3C(=O)c3c(NC(=O)NN5CCOCC5)cccc3-4)CC2)CC1`, 172 to 174 °C.

In turn, `COc1ccc(C2OC(=O)c3cc(OC)c(OC)c(OC)c32)cc1OC` (stereo not given) yielded a melting point of 141 to 142 °C. Compound `CC(C)c1cc2c(=O)n3cc(C(N)=O)ccc3nc2s1` registered a melting point of 280 to 282 °C.

`CSC(=N)N(C#N)C(c1ccccn1)c1ccccc1C` (stereo not given) returned a melting point of 162 to 164 °C. With `O=C1c2ccccc2S(=O)(=O)N1C(c1cccs1)c1nnnn1-c1ccccc1` (stereo not given) the figure was 192 to 193 °C; with `Cn1nc(C(F)(F)F)c(C(=O)Nc2ccccc2)c1-c1ccccc1O`, 191 °C.
